The text below walks through data of paper PMC12203697, “Bioactive constituents from the edible seaweed Halymenia hawaiiana (Rhodophyta)” (Pharmaceutical Biology, 2025).

In brackets after ≈: the same amount, converted by molar mass. Where two headings read alike, the source gives them in different places.

One data set has as its system S. aureus 8325-4. The data set is described as follows: Antibacterial MIC, broth microdilution with resazurin. The class given is cell-based. The conditions noted are these: Staphylococcus aureus, 83254; S. aureus 8325-4, Gram-positive; read-out: MIC. An outline of the steps: (§1)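 MIC is taken from the resazurin colour read 2–3 hr after dye addition (0.18%), following 18–24 hr growth at 35–37 °C. Compounds are serially diluted two-fold from DMSO into Mueller Hinton broth and seeded with 1 × 10^4 CFU/well of each strain.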
(In broth dilution the organism is exposed to a series of concentrations in liquid medium.)

For a further data set, the system named is S. aureus ONE9. The data set is described as above. Type of data set: cell-based. Particulars: Staphylococcus aureus; S. aureus ONE9, Gram-positive; read-out: MIC. The procedure, abridged: as §1
The test system of another data set is S. marcescent. The data set is described as above. Type of data set: cell-based, Serratia marcescens. The conditions noted are these: Serratia marcescens, Gram-negative, read-out: MIC. From the text:
Methicillin-resistant Staphylococcus aureus (MRSA), methicillin-susceptible S. aureus (MSSA), and Gram-negative clinical isolates of bacteria [Escherichia coli (9637) and Serratia marcescens ATCC 13880] were used for this study. […] MSSA HBP10, MSSA LUU7, MSSA R113, S. aureus ONE9, and MSSA POB2 were isolated in Hawaiʻi (Gerken et al. [2021]). Mueller Hinton Broth (MHB, GTIN:00382902979630, Becton, Dickinson and Company, Franklin Lakes, NJ, USA) and Mueller Hinton Agar (MHA, GTIN:00382902252504, Becton, Dickinson and Company, Franklin Lakes, NJ, USA,) were used for bacterial inoculation. MRSA was a pathogen strain causing hospital-acquired infections in 1982. This strain easily acquires resistance to antibiotics, such as vancomycin. MSSA strains isolated from the Island of Hawaiʻi included: Honolʻii Beach Park (HBP10) carry the genes erm(C), aph(3′)-III, and mecA, which provide resistance to macrolide, aminoglycoside, and beta-lactam antibiotics, respectively; Wailuku River (LUU7) which contains the blaZ gene (beta-lactam resistance) (Gerken et al. [2021]). Richardson’s Beach Park (R113) and Onekahakaha (ONE9) which is known for its virulence factors (hlgA, hlgB, hlgC, lukD, and lukE).
The minimum inhibitory concentrations (MICs) were determined using a two-fold serial dilution method with MHB following the recommendations of the Clinical and Laboratory Standards Institute (CLSI [2012]; Elshikh et al. [2016]). In brief, serial two-fold dilutions of the samples in DMSO were mixed with MHB in a 96-well microplate. Then, 50 µL of bacteria suspension was added to each well, resulting in a final concentration of 1 × 10^4 colony-forming units/well. The plates were incubated at 35–37 °C for 18–24 hr. After incubation, 10 µL of 0.18% resazurin (Cat. No. R7017, Sigma-Aldrich, USA) was added to each well (Elshikh et al. [2016]). The MIC was assessed within 2–3 hr after the addition of resazurin. All antimicrobial assays were performed in triplicate, using vancomycin (Cat. No. SBR00001, Sigma-Aldrich, USA) and gentamicin (Cat. No. G1397, Sigma-Aldrich, USA) as standard controls.

For data set [1], the system named is ROS/RNS generation in RAW 264.7 cells. The data set is described as follows: Intracellular ROS/RNS levels in LPS-induced RAW 264.7 cells (H2DCF-DA). The class given is cell-based. The conditions noted are these: Mus musculus. On the procedure:
To measure the formation of intracellular ROS and RNS, we utilized the fluorogenic dye 2′,7′-dichlorodihydrofluorescein diacetate (Cat. No. 4091-99-0, H2DCF-DA, Abcam, Boston, MA, USA). This dye detects hydrogen peroxide, peroxyl radicals, and peroxynitrite anions (Kwon et al. [2019]). In brief, RAW 264.7 cells were seeded into a black 96-well plate (Cat. No. 165305, Thermo Fisher, USA) at 4 × 10^4 cells per well and incubated for 24 hr at 37 °C in 5% CO2. Afterward, the cells were treated with or without a sample for 4 hr before adding 1 μg/mL LPS (Cat. No. 00-4976-93, Thermo Fisher, USA) for 20 hr. Once this incubation was complete, the cells were washed twice with fetal bovine serum (FBS)-free media (Cat. No. A5256701, Thermo Fisher, USA) and stained with 10 μM H2DCF-DA (Cat. No. D399, Thermo Fisher, USA) in FBS-free media for 30 min at 37 °C, protected from light. Next, the dye-containing media was discarded, and the cells were washed twice with fresh serum-free media. The relative fluorescent intensity of the cells was measured using a fluorescence plate reader (Synergy H1, BioTeK, Winooski, VT, USA) with excitation/emission at 485 nm/535 nm. Curcumin (Cat. No. C1386-5G, Millipore Sigma, Burlington, MA, USA), a natural phenolic compound with antioxidant activity, was used as positive control. All samples were tested in triplicates. A sulforhodamine B (SRB) assay was conducted to assess cellular viability under a similar experimental setup. The final percentage of inhibition of ROS/RNS generation was calibrated using the % of cell viability.

A further data set deals with RAW 264.7 cells. The data set is described as follows: SRB cellular viability in RAW 264.7 cells. Particulars: under the NO and ROS/RNS assay conditions. The class given is cell-based, mouse. On the procedure:
The nitrite concentration in the culture medium was measured to indicate nitric oxide (NO) production as previously described (Min et al. [2009]). The murine macrophage RAW 264.7 cell line was obtained from ATCC, Manassas, VA, USA, and maintained in Dulbecco’s modified Eagle’s medium supplemented with 10% heat-inactivated FBS (Cat. No. A5670801, Gibco BRL Co, Grand Island, NY, USA), penicillin G (100 units/mL) (Cat. No. P7794, Sigma-Aldrich, USA), streptomycin (100 µg/mL) (Cat. No. S9137, Sigma-Aldrich, USA), and L-glutamine (2 mM) (Cat. No. 25030081, Gibco BRL Co, Grand Island, NY, USA). In brief, RAW 264.7 cells were seeded at a density of 4 × 10^4 cells/well in phenol red-free media (Cat. No. 11835030, Gibco, USA) in a 96-well plate, and incubated in a humidified incubator with 5% CO2 at 37 °C for 24 hr. Following this, the cells were treated with increasing concentrations of samples ranging from 10–50 μg/mL for 4 hr, after which the cells were treated with 1 μg/mL LPS for 20 h. L-N-Monomethyl Arginine citrate (L-NMMA) (Cat. No. NC0190932, Cayman Chemical, Michigan, USA), a non-selective inhibitor of NOS, was used as positive control. The concentration of nitric oxide production was assessed using the Griess reagent, which consists of a 1:1 (v/v) mixture of 1% sulfanilamide (Cat No. A13001, Alfa Aesar, Massachusetts, USA) in H3PO4 and N-(1-naphthyl)ethylenediamine dihydrochloride (Cat. No. 102397, MP Biomedicals, USA). Absorbance was recorded with a microplate reader (SynergyMx, BioTeK, Winooski, VT, USA) at 540 nm. A standard curve was created using sodium nitrite (1–100 μM) (Cat. No. 44227, Alfa Aesar, Massachusetts, USA). […]
To measure the formation of intracellular ROS and RNS, we utilized the fluorogenic dye 2′,7′-dichlorodihydrofluorescein diacetate (Cat. No. 4091-99-0, H2DCF-DA, Abcam, Boston, MA, USA). […] The relative fluorescent intensity of the cells was measured using a fluorescence plate reader (Synergy H1, BioTeK, Winooski, VT, USA) with excitation/emission at 485 nm/535 nm. […]

[2] abbreviates: RAW264.7, read-out: IC50, inhibition of LPS-induced ROS/RNS generation.

By MIC is commonly meant the lowest concentration that inhibits growth of the organism. As for `Nc1ccn([C@H]2C[C@H](O)[C@@H](CO)O2)c(=O)n1` [Compound 1, deoxycytidine], the minimum inhibitory concentration (MIC) with S. aureus 8325-4, in the data set on S. aureus ONE9 and in the data set on S. marcescent was 128 µg/mL (≈ 563 µM) throughout.
As to `CC(C)CCC[C@@H](C)[C@H]1CC[C@H]2[C@@H]3CC=C4C[C@@H](O)CC[C@]4(C)[C@H]3CC[C@]12C` [Compound 9, cholesterol], the IC50 in data set [1] (RAW264.7, RAW 264.7 cells, H2DCF-DA dye, LPS 1 μg/mL, read-out: IC50, inhibition of LPS-induced ROS/RNS generation) was 55 ± 4.1 µM. The “cytotoxicity in RAW 264.7 cells (in words)” value (from here on “cytotoxicity”) in the data set with RAW 264.7 cells is listed as “without inducing cytotoxicity”. In addition, the MIC in the data set with S. aureus 8325-4, in the data set with S. aureus ONE9 and in the data set with S. marcescent was 128 µg/mL (≈ 331 µM) each time.
With `CC(C)CCC[C@@H](C)[C@H]1CCC2[C@@]34C=C[C@]5(C[C@@H](O)CC[C@]5(C)C3CC[C@@]21C)OO4` (stereo partly drawn) [Compound 10, 7-dehydrochoresterol peroxide], the IC50 in data set [1] (setting [2]) is 65 ± 4.8 µM. Further, the “cytotoxicity” value in the data set with RAW 264.7 cells is listed as “without inducing cytotoxicity”. Besides, the MIC with S. aureus 8325-4 amounted to 128 µg/mL (≈ 307 µM); with S. aureus ONE9, 128 µg/mL (≈ 307 µM); with S. marcescent, 64 µg/mL (≈ 154 µM).
`CC(C)CCC[C@@H](C)[C@H]1CCC2[C@]1(C)CC=C1[C@]23C=C[C@]2(C[C@@H](O)CC[C@]12C)OO3` (stereo partly drawn) [Compound 11, (3β-5α-8α)5,8-epidioxycholesta-6,9(1)-diene-3-ol]: the IC50 in data set [1] (setting [2]) was 73.7 ± 6.2 µM. For the same compound, the “cytotoxicity” value with RAW 264.7 cells is reported as “without inducing cytotoxicity”. For the same compound, the minimum inhibitory concentration (MIC) in the data set on S. aureus 8325-4 was 128 µg/mL (≈ 309 µM); in the data set with S. aureus ONE9 it was 128 µg/mL (≈ 309 µM); in the data set on S. marcescent it was 64 µg/mL (≈ 154 µM).
